According to patent publication US20170305861A1, “HETEROARYL COMPOUNDS COMPRISING NITROGEN AND USE THEREOF” (ImmunoMet Therapeutics, Inc, priority 2016, published 2017):
Where two headings read alike, the source gives them in different places.

What was measured:
[1] = test system: SK-MEL-28 cells; assay: Inhibitory effect of cancer cell proliferation, MTT; format: cell-based; conditions: Homo sapiens
Description: The compounds prepared in the above Examples were evaluated for the inhibitory effect of cancer cell proliferation according to the method described in the following Test Example.
SK-MEL-28 cells derived from human melanoma were used, and the concentration (cell growth inhibitory concentration, IC50) at which cell growth was inhibited to 50% was measured using MTT reagent (3-(4,5-dimethylthiazole-2-yl)-2,5-[…] bromide) to confirm the inhibitory effect of cancer cell proliferation of the drugs synthesized in Examples 1 to 84.
First, SK-MEL-28 cells were cultured in 96-well plates at a cell number of about 1,250 in RPMI-1640 medium containing 11.1 mM glucose and 10% calf blood serum or 0.75 mM glucose and 10% calf blood serum, and were cultured for 16 hours. […] After treatment of the compound, MTT was added to the culture medium to confirm living cells and further cultured for 2 hours. The resulting formazane crystal was dissolved using dimethyl sulfoxide, and the absorbance of the solution was measured at 555 nm. After culturing for 72 hours, the number of viable cells in the well plate treated with the compounds synthesized in the Examples relative to the number of cells cultured in the well plate without treatment of the compounds was expressed as cell viability (%) according to each treatment concentration. By using this, a cell viability curve graph was prepared, and the inhibitory effect of cancer cell proliferation was confirmed by calculating the concentration of the compound whose growth was inhibited to 50% (IC50).

[2] = test system: A549 cell lines (lung cancer cell lines); assay: Oxygen Consumption Rate (OCR) of cells, corrected for cell viability (Cyquant); format: cell-based; conditions: Homo sapiens, read-out: OCR IC50
Description: The compounds synthesized by the methods disclosed in the Examples of the present invention have been measured on oxygen consumption rate and extracellular oxidation by the methods disclosed in the Test Examples below.
3×10^3 cells from A549 cell lines (purchased from ATCC-American Type Culture Collection), which are lung cancer cell lines, were placed on XF96 cell culture plates using RPMI1640 medium, and cultured at 37° C. in a 5% CO2 condition for 16 hours or more for attachment.
After 16 hours, the cells were treated with the drug at six different concentrations between 0 μM and 20 μM. After 24 hours, the existing medium was removed, and XF assay medium (15 mM D-Glucose, 15 mM sodium pyruvate, 4 mM L-Glutamine, pH 7.4) was added. The cells were retreated with the drug, and additionally cultured in Prep station at 37° C. in a non-CO2 condition for 1 hour. During the one-hour culture in the Prep station, a sensor cartridge was placed and calibrated for 20 minutes, and a plate with cells was placed to analyze the OCR. After the analysis was completed, XF96 plate was measured for cell viability using Cyquant assay, which measures the amount of intracellular DNA, in the following method. XF assay medium and the drug were removed, and the cells were placed in a cryogenic refrigerator (−80° C.) for at least 4 hours to be frozen. After the plate was made to be at room temperature, a solution where a lysis buffer and fluorescent GR dye were mixed was placed by 200 μL per well. After 20-minute reaction at room temperature, […] was measured between […] to calculate cell viability. A measured value of a well untreated with the drug was converted to 100% by reflecting cell viability to the OCR value. Concentration of a drug which inhibits the OCR value reflecting cell viability by 50% was calculated.

[3] = SK-MEL-28, 0.75 mM glucose, 72 hours, MTT, read-out: SK-MEL-28 0.75 mM glucose Cell viability (IC50 μM)
[4] = SK-MEL-28, 11.1 mM glucose, 72 hours, MTT, read-out: SK-MEL-28 11.1 mM glucose Cell viability (IC50 μM)
[5] = A549 cells, 24 h drug treatment, OCR value reflecting cell viability
[6] = SK-MEL-28, 72 h, read-out: SK-MEL-28 0.75 mM glucose Cell viability (IC50 μM)
[7] = SK-MEL-28, 72 h, read-out: SK-MEL-28 11.1 mM glucose Cell viability (IC50 μM)

Nc1cc[n+](Cc2ccccc2)c(N)c1 [Example 29, 2,4-Diamino-1-benzylpyridinium chloride]
IC50 [1, 3]: 38.5 µM | IC50 [1, 4]: 162 µM | IC50 [2, 5]: 5.3 µM

Nc1cc[n+](CCc2ccccc2)cc1 [Example 1, 4-Amino-1-phenethylpyridinium chloride]
IC50 [1, 6]: 17.9 µM | IC50 [1, 7]: 163 µM | IC50 ([2]; A549, 24 h): 1.1 µM

Nc1cc[n+](CCc2ccccc2)c2ccccc12 [Example 16, 4-Amino-1-phenethylquinolinium iodide]
IC50 [1, 3]: 8 µM | IC50 [1, 4]: 28.2 µM | IC50 [2, 5]: 1.5 µM

c1c[n+](CC2CCC2)ccc1N1CCCC1 [Example 58, 1-(Cyclobutylmethyl)-4-(pyrrolidin-1-yl)pyridinium chloride]
IC50 [1, 3]: 3 µM | IC50 [1, 4]: 93.9 µM | IC50 [2, 5]: 2.5 µM

Nc1cc[n+](CCc2ccccc2)c(F)c1 [Example 18, 4-amino-2-fluoro-1-phenethylpyridinium chloride]
IC50 [1, 3]: 10.7 µM | IC50 [1, 4]: 16.9 µM | IC50 [2, 5]: 0.6 µM

c1cc(C[n+]2ccc(N3CCC3)cc2)cs1 [Example 71, 4-(Azetidin-1-yl)-1-(thiophen-3-ylmethyl)pyridinium bromide]
IC50 [1, 3]: 6.8 µM | IC50 [1, 4]: 76.4 µM | IC50 [2, 5]: 3.4 µM

c1c[n+](CC2CC2)cc2c1NCCO2 [Example 64, 6-(Cyclopropylmethyl)-2,3-dihydro-1H-pyrido[3,4-b][1,4]oxazin-6-ium chloride]
IC50 [1, 3]: 21 µM | IC50 [1, 4]: 187 µM | IC50 [2, 5]: 10.2 µM

c1csc(C[n+]2ccc(N3CCCC3)cc2)c1 [Example 68, 4-(Pyrrolidin-1-yl)-1-(thiophen-2-ylmethyl)pyridinium chloride]
IC50 [1, 3]: 1.7 µM | IC50 [1, 4]: 38.5 µM | IC50 [2, 5]: 0.8 µM

Nc1cc[n+](CCC2CCCCC2)cc1 [Example 27, 4-Amino-1-(2-cyclohexylethyl)pyridinium bromide]
IC50 [1, 6]: 1.7 µM | IC50 [1, 7]: 19.5 µM | IC50 ([2]; A549, 24 h): 0.4 µM

CN(C)c1cc[n+](CC2CC2)cc1 [Example 42, 1-(Cyclopropylmethyl)-4-(dimethylamino)pyridinium chloride]
IC50 [1, 3]: 35 µM | IC50 [1, 4]: 199 µM | IC50 [2, 5]: 1.5 µM

Nc1cc[n+](CCc2ccccc2)c(Br)c1 [Example 7, 4-Amino-2-bromo-1-phenethylpyridinium chloride]
IC50 [1, 3]: 20.7 µM | IC50 [1, 4]: 16.8 µM | IC50 [2, 5]: 0.4 µM

CNc1cc[n+](CCc2ccccc2)cc1 [Example 33, 4-(Methylamino)-1-phenethylpyridinium chloride]
IC50 [1, 3]: 7.7 µM | IC50 [1, 4]: 102 µM | IC50 [2, 5]: 1.5 µM

Nc1cc[n+](Cc2ccc[se]2)cc1 [Example 76, 4-Amino-1-(selenophen-2-ylmethyl)pyridinium chloride]
IC50 [1, 6]: 14.1 µM | IC50 [1, 7]: 114 µM | IC50 ([2]; A549, 24 h): 1.5 µM

c1ccc(C[n+]2ccc(N3CCCCCC3)cc2)cc1 [Example 60, 4-(Azepan-1-yl)-1-benzylpyridinium chloride]
IC50 [1, 3]: 20 µM | IC50 [1, 4]: 24.1 µM | IC50 [2, 5]: 3.3 µM

Nc1cc[n+](CCc2ccc(Cl)c(Cl)c2)cc1 [Example 19, 4-Amino-1-(3,4-dichlorophenethyl)pyridinium chloride]
IC50 [1, 3]: 5.9 µM | IC50 [1, 4]: 8.8 µM | IC50 [2, 5]: 0.5 µM

CN(C)c1cc[n+](Cc2ccc(Cl)c(Cl)c2)cc1 [Example 38, 1-(3,4-Dichlorobenzyl)-4-(dimethylamino)pyridinium chloride]
IC50 [1, 3]: 1.5 µM | IC50 [1, 4]: 11.7 µM | IC50 [2, 5]: 1.1 µM

Nc1cc[n+](CC2CC2)c(F)c1 [Example 39, 4-Amino-1-(cyclopropylmethyl)-2-fluoropyridinium chloride]
IC50 [1, 3]: 45.3 µM | IC50 [1, 4]: 76.5 µM | IC50 [2, 5]: 2.7 µM

Nc1cc[n+](CC(=O)c2ccc(OC(F)(F)F)cc2)cc1 [Example 25, 4-Amino-1-(2-oxo-2-(4-(trifluoromethoxy)phenyl)ethyl)pyridinium bromide]
IC50 [1, 3]: 15.5 µM | IC50 [1, 4]: 40.6 µM | IC50 [2, 5]: 1.6 µM

Nc1cc[n+](CCCc2ccccc2)cc1 [Example 23, 4-Amino-1-(3-phenylpropyl)pyridinium chloride]
IC50 [1, 3]: 5.4 µM | IC50 [1, 4]: 51.1 µM | IC50 [2, 5]: 0.9 µM

Nc1cc(N2CCC2)cc[n+]1Cc1ccsc1 [Example 81]
IC50 [1, 3]: 4.15 µM | IC50 [1, 4]: 58.4 µM | IC50 [2, 5]: 2.1 µM

Cc1ccc(C[n+]2ccc(N3CCCC3)cc2)s1 [Example 79, 1-((5-Methylthiophen-2-yl)methyl)-4-(pyrrolidin-1-yl)pyridinium chloride]
IC50 [1, 3]: 1.16 µM | IC50 [1, 4]: 30.7 µM | IC50 [2, 5]: 0.8 µM

Nc1cc[n+](CCc2ccccc2)c(Cl)c1 [Example 32, 4-Amino-2-chloro-1-phenethylpyridinium chloride]
IC50 [1, 3]: 8.1 µM | IC50 [1, 4]: 38.8 µM | IC50 [2, 5]: 0.3 µM

Nc1cc[n+](CCc2ccccc2Cl)cc1 [Example 11, 4-Amino-1-(2-chlorophenethyl)pyridinium chloride]
IC50 [1, 3]: 11.9 µM | IC50 [1, 4]: 38.5 µM | IC50 [2, 5]: 0.7 µM

c1ccc(C[n+]2ccc(N3CCCC3)cc2)cc1 [Example 54, 1-Benzyl-4-(pyrrolidin-1-yl)pyridinium chloride]
IC50 [1, 3]: 3.4 µM | IC50 [1, 4]: 29.7 µM | IC50 [2, 5]: 1.1 µM

Nc1cc[n+](Cc2ccccc2)c(Cl)c1 [Example 30, 4-Amino-1-benzyl-2-chloropyridinium chloride]
IC50 [1, 3]: 8.2 µM | IC50 [1, 4]: 23 µM | IC50 [2, 5]: 0.9 µM

c1ccc(C[n+]2ccc(N3CCC3)cc2)cc1 [Example 66, 4-(Azetidin-1-yl)-1-benzylpyridinium chloride]
IC50 [1, 3]: 6.1 µM | IC50 [1, 4]: 77 µM | IC50 [2, 5]: 5.2 µM

c1ccc(CC[n+]2ccc(N3CCOCC3)cc2)cc1 [Example 51, 4-Morpholino-1-phenethylpyridinium chloride]
IC50 [1, 3]: 29.1 µM | IC50 [1, 4]: 201 µM | IC50 [2, 5]: 3.1 µM

c1ccc(C[n+]2ccc(N3CCCCC3)cc2)cc1 [Example 59, 1-Benzyl-4-(piperidin-1-yl)pyridinium chloride]
IC50 [1, 3]: 2.8 µM | IC50 [1, 4]: 33.4 µM | IC50 [2, 5]: 2.8 µM

Nc1cc[n+](Cc2ccc[se]2)nc1 [Example 75, 4-Amino-1-(selenophen-2-ylmethyl)pyridazin-1-ium chloride]
IC50 [1, 6]: 57.7 µM | IC50 [1, 7]: 239 µM | IC50 ([2]; A549, 24 h): 18.8 µM

Nc1cc[n+](Cc2ccccc2)c(F)c1 [Example 21, 4-Amino-1-benzyl-2-fluoropyridinium chloride]
IC50 [1, 3]: 12.5 µM | IC50 [1, 4]: 27.4 µM | IC50 [2, 5]: 0.9 µM

c1c[n+](CCC2CCCCC2)ccc1N1CCOCC1 [Example 53, 1-(2-Cyclohexylethyl)-4-morpholinopyridinium bromide]
IC50 [1, 3]: 8.7 µM | IC50 [1, 4]: 76.4 µM | IC50 [2, 5]: 0.5 µM

c1c[se]c(C[n+]2ccc(N3CCCC3)cc2)c1 [Example 72, 4-(Pyrrolidin-1-yl)-1-(selenophen-2-ylmethyl)pyridinium chloride]
IC50 [1, 6]: 2.6 µM | IC50 [1, 7]: 37.2 µM | IC50 ([2]; A549, 24 h): 1 µM

Nc1cc[n+](CCc2ccccc2)c(N)c1 [Example 8, 2,4-Diamino-1-phenethylpyridinium bromide]
IC50 [1, 3]: 4.7 µM | IC50 [1, 4]: 75.1 µM | IC50 [2, 5]: 1.2 µM

CNc1cc[n+](Cc2ccccc2)cc1 [Example 34, 1-Benzyl-4-(methylamino)pyridinium chloride]
IC50 [1, 3]: 7.9 µM | IC50 [1, 4]: 101 µM | IC50 [2, 5]: 1.1 µM

Nc1cc[n+](CCC2CCCCC2)c(N)c1 [Example 40, 2,4-Diamino-1-(2-cyclohexylethyl)pyridinium bromide]
IC50 [1, 3]: 7.5 µM | IC50 [1, 4]: 30.6 µM | IC50 [2, 5]: 0.9 µM
